Measurements from patent US12630530B2, “FGFR inhibitor compound and use thereof” (HENAN MEDINNO PHARMACEUTICAL TECHNOLOGY CO., LTD., priority 2020, dated 2026).

Assays:
Format in all cases: biochemical
Details in all cases: Table 3; same method as Assay I, different experimental operator
[1] = molecular target: T1, VEGFR2 (Homo sapiens, UniProt P35968); assay: Assay III: kinase inhibition (method of Assay I, different operator), VEGFR2
T1 construct: purchased Carna 08-191
Method: (§1) 1×Kinase reaction buffer was formulated with 1×volume of 5× kinase reaction buffer and 4×volume of water; 5 mM MgCl2; and 1 mM DTT.
(§2) 2.3 Screening of Compounds: • 1. Diluting a compound 4-fold in a dilution plate with DMSO, with a starting compound concentration of 2 mM (4 mM for Nentedanib). • 2. Diluting the compound 40-fold into 1× kinase reaction buffer and shaking it on a shaker for 20 minutes. • 3. Formulating 2×FGFR1 V561M/FGFR2 V564F/FGFR3 K650E/VEGFR2 with 1× of enzyme reaction buffer. • 4. Adding 2 μl FGFR1 V561M/FGFR2 V564F/FGFR3 K650E/VEGFR2 kinase (formulated in step 3) to each well of the reaction plate. • 5. Adding 1 μl of the compound diluted in buffer to each well, sealing the plate with a sealing membrane and centrifuging the plate at 1000 g for 30 seconds and leaving it at room temperature for 10 minutes. • 6. Formulating 2.5×TK-substrate-biotin and ATP mixture with 1× enzyme reaction buffer and adding 2 μl of K-substrate-biotin/ATP mixture to the reaction plate. • 7. Sealing the plate with a sealing membrane and centrifuging the plate at 1000 g for 30 seconds and allowing it to react at room temperature for 50 minutes. • 8. Formulating 4×Sa-XL 665 (250 nM) with HTRF assay buffer. • 9. Adding 5 μl Sa-XL 665 and 5 μl TK-Antibody-Cryptate to each well, centrifuging it at 1000 g for 30 seconds, and allowing it to react for 1 hour at room temperature. • 10. Reading fluorescence signals at 615 nm (Cryptate) and 665 nm (XL665) with Biotek. 3. Data Analysis
(§3) 3.1 Calculation of the ratio for each well: the ratio was calculated as 665/615 nm.
(§4) 3.3 Calculation of IC50 and plotting of inhibition curves for the compounds.
The IC50 (half inhibition concentration) of a compound was obtained using the following non-linear fitting equation, wherein data analysis was performed using Graphpad 6.0 software. Y=Bottom+(Top−Bottom)/(1+10^((Log IC50−X)*Hill Slope)) • X: log value of compound concentration; and Y: inhibition rate (% inh) 3.4 Validation of Results
(§5) Data were exported from Envision and analyzed manually. The ratios were converted to inhibition rates and IC50 was calculated by Prism GraphPad 6.0 from the inhibition rates. IC50 was calculated again by the ratios to verify accuracy of the results.
(§6) Assay III: Determination of Inhibitory Activity Against FGFR Mutants

[2] = molecular target: T2, FGFR2 V564F (Homo sapiens, UniProt P21802, V564F); assay: Assay III: inhibitory activity against FGFR mutants (method of Assay I, different operator)
T2 construct: purchased Signalchem F05-12FG
Method: as §1
as §2, with “Formulating 2×FGFR1 V561M/FGFR2 V564F/FGFR3 K650E/VEGFR2 with 1× of enzyme reaction buffer. • 4. Adding 2 μl FGFR1 V561M/FGFR2 V564F/FGFR3 K650E/VEGFR2 kinase (formulated in step 3) to each well of the reaction plate. • 5.” left out
as §3, §4
(§7) The IC50 (half inhibition concentration) of a compound was obtained using the following non-linear fitting equation, wherein data analysis was performed using Graphpad 6.0 software.
as §5, §6

[3] = molecular target: T3, FGFR3 V555M (Homo sapiens, UniProt P22607, V555M); assay: as above
T3 construct: purchased Signalchem F06-12GG
Method: as §1
as §2, with “Formulating 2×FGFR1 V561M/FGFR2 V564F/FGFR3 K650E/VEGFR2 with 1× of enzyme reaction buffer. • 4. Adding 2 μl FGFR1 V561M/FGFR2 V564F/FGFR3 K650E/VEGFR2 kinase (formulated in step 3) to each well of the reaction plate. • 5.” left out
as §3, §4, §7, §5, §6

[4] = molecular target: T4, FGFR1 V561M (Homo sapiens, UniProt P11362, V561M); assay: as above
T4 construct: purchased Signalchem F04-13G
Method: as §1
as §2, with “Formulating 2×FGFR1 V561M/FGFR2 V564F/FGFR3 K650E/VEGFR2 with 1× of enzyme reaction buffer. • 4. Adding 2 μl FGFR1 V561M/FGFR2 V564F/FGFR3 K650E/VEGFR2 kinase (formulated in step 3) to each well of the reaction plate. • 5.” left out
as §3, §4, §7, §5, §6

T4 sequence (P11362 22-822 V561M): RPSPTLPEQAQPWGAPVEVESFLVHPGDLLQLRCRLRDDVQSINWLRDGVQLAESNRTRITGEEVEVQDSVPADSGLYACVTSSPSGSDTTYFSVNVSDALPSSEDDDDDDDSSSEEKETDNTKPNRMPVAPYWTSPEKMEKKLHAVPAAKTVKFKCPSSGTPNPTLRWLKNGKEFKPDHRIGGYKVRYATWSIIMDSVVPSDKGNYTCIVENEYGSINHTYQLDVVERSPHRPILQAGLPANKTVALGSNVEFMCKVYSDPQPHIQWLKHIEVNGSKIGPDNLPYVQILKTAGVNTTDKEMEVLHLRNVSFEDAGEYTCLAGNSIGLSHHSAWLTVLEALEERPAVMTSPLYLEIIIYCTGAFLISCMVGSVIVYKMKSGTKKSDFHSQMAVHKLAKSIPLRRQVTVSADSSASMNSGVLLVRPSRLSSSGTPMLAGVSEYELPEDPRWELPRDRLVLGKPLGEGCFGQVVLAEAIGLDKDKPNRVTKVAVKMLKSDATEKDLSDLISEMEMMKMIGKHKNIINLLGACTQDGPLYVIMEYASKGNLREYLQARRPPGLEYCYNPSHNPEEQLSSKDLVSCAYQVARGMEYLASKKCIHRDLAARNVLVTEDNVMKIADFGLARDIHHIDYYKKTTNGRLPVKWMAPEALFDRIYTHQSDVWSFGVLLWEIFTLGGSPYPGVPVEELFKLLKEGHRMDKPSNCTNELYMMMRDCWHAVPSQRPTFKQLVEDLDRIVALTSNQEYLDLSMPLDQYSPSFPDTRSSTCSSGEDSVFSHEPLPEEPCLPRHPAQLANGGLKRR
T2 sequence (P21802 22-821 V564F): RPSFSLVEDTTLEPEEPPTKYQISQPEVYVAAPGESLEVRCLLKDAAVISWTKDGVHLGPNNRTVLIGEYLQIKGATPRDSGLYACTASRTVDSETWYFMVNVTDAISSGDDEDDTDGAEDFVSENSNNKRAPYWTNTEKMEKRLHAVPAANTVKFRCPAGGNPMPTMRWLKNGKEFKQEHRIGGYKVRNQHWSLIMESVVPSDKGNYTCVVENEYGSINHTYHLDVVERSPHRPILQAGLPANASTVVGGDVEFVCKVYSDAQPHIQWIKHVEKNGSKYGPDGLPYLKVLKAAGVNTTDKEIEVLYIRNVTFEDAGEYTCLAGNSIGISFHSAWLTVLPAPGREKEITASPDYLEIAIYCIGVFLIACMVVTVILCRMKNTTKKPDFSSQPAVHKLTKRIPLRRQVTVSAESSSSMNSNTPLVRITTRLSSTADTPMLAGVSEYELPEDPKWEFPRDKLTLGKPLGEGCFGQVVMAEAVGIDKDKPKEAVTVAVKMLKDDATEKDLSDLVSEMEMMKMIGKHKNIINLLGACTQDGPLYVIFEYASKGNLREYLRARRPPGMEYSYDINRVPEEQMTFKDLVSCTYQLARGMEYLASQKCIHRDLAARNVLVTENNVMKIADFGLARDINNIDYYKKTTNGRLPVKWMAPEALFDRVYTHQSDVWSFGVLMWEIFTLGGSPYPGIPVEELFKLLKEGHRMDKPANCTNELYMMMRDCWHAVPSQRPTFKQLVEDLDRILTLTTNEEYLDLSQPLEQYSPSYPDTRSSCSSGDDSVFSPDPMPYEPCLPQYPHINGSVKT
T3 sequence (P22607 23-806 V555M): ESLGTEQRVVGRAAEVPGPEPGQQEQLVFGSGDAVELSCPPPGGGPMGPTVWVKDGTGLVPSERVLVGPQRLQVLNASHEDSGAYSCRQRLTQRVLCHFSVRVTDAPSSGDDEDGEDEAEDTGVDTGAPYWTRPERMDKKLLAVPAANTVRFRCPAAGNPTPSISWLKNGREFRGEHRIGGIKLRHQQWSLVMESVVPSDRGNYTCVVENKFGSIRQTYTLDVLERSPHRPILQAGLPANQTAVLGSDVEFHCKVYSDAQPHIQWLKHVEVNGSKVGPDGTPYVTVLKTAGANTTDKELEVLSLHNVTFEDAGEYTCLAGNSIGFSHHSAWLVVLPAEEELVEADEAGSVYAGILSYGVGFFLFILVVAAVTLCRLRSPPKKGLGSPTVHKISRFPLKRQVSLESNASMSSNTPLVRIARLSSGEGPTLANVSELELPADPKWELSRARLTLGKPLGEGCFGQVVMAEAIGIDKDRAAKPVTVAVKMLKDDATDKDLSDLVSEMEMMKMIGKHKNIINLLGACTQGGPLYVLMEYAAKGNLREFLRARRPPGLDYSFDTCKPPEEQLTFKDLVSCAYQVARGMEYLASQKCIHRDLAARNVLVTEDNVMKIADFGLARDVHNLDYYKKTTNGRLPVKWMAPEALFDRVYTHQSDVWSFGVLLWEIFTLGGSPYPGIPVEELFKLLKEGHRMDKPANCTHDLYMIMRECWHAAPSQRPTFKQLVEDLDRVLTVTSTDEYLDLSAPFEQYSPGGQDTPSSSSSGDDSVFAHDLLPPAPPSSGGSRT
T1 sequence (P35968 20-1356): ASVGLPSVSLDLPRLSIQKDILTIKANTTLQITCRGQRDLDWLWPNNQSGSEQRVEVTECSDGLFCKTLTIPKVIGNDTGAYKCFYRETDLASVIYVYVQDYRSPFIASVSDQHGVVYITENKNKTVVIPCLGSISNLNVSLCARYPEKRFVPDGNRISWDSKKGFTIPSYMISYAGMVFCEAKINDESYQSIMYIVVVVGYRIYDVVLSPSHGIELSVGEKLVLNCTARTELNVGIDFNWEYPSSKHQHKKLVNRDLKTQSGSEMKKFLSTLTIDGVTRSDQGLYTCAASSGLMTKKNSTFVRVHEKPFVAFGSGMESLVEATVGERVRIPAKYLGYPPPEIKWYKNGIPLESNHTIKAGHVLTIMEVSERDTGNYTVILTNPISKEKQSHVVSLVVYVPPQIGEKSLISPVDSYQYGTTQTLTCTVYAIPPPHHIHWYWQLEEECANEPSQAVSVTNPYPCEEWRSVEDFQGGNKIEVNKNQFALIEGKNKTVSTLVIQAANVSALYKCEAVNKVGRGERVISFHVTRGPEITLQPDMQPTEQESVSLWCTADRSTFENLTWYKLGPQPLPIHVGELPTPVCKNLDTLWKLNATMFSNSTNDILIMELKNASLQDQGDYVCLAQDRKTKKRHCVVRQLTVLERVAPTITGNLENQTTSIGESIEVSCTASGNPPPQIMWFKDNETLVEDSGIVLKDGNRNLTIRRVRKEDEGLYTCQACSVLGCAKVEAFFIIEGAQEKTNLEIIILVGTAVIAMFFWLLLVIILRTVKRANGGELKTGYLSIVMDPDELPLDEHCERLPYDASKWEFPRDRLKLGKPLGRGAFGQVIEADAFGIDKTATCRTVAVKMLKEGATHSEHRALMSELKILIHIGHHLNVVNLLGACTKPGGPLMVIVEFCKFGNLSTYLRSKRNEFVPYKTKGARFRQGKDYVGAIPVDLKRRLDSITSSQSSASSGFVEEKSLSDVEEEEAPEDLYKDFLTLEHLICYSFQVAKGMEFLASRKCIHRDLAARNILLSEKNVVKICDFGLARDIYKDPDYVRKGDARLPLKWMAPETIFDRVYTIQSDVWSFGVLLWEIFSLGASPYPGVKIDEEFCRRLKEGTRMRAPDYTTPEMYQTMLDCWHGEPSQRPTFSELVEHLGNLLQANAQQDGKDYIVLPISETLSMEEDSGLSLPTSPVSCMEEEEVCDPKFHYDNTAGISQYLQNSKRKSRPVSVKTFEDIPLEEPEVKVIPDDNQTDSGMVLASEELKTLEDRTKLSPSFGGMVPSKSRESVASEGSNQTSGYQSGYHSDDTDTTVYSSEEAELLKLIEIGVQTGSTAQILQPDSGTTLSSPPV

CC(Oc1ccc2[nH]nc(C(=O)Nc3cnn(CC(=O)N4CCCC4)c3)c2c1)c1c(Cl)cncc1Cl (stereo not shown) [Compound 23, 5-(1-(3,5-dichloropyridin-4-yl)ethoxy)-N-(1-(2-oxo-2-(pyrrolidin-1-yl)ethyl)-1H-pyrazol-4-yl)-1H-indazole-3-carboxamide]
IC50 [1]: 114 nM | IC50 [2]: 0.47 nM | IC50 [3]: 0.92 nM | IC50 [4]: 2.2 nM

CC(Oc1ccc2[nH]nc(C(=O)Nc3cnn(CC(=O)N(C)C)c3)c2c1)c1c(Cl)cncc1Cl (stereo not shown) [Compound 24, 5-(1-(3,5-dichloropyridin-4-yl)ethoxy)-N-(1-(2-(dimethylamino)-2-oxoethyl)-1H-pyrazol-4-yl)-1H-indazole-3-carboxamide]
IC50 [1]: 201 nM | IC50 [2]: 0.43 nM | IC50 [3]: 1.3 nM | IC50 [4]: 3.3 nM

CC(Oc1ccc2[nH]nc(C(=O)Nc3cnn(CCN4CCCC4)c3)c2c1)c1c(Cl)cncc1Cl (stereo not shown) [Compound 25, 5-(1-(3,5-dichloropyridin-4-yl)ethoxy)-N-(1-(2-(pyrrolidin-1-yl)ethyl)-1H-pyrazol-4-yl)-1H-indazole-3-carboxamide]
IC50 [1]: 145 nM | IC50 [2]: 0.26 nM | IC50 [3]: 0.21 nM | IC50 [4]: 3.6 nM

CC(Oc1ccc2[nH]nc(C(=O)Nc3cnn(C(C)C)c3)c2c1)c1c(Cl)cncc1Cl (stereo not shown) [Compound 26, 5-(1-(3,5-dichloropyridin-4-yl)ethoxy)-N-(1-isopropyl-1H-pyrazol-4-yl)-1H-indazole-3-carboxainide]
IC50 [1]: 255 nM | IC50 [2]: 1.8 nM | IC50 [3]: 2.9 nM | IC50 [4]: 11.4 nM

CC(Oc1ccc2[nH]nc(C(=O)Nc3cnn(C4CCC4)c3)c2c1)c1c(Cl)cncc1Cl (stereo not shown) [Compound 27, N-(1-cyclobutyl-1H-pyrazol-4-yl)-5-(1-(3,5-dichloropyridin-4-yl)ethoxy)-1H-indazole-3-carboxamide]
IC50 [1]: 581 nM | IC50 [2]: 2.1 nM | IC50 [3]: 7.3 nM | IC50 [4]: 20 nM

CC(Oc1ccc2[nH]nc(C(=O)Nc3cnn(CC(F)(F)F)c3)c2c1)c1c(Cl)cncc1Cl (stereo not shown) [Compound 28, 5-(1-(3,5-dichloropyridin-4-yl)ethoxy)-N-(1-(2,2,2-trifluoroethyl)-1H-pyrazol-4-yl)-1H-indazole-3-carboxamide]
IC50 [1]: 68 nM | IC50 [2]: 2.6 nM | IC50 [3]: 3 nM | IC50 [4]: 11 nM

CC(Oc1ccc2[nH]nc(C(=O)Nc3cnn(CCCO)c3)c2c1)c1c(Cl)cncc1Cl (stereo not shown) [Compound 29, 5-(1-(3,5-dichloropyridin-4-yl)ethoxy)-N-(1-(3-hydroxypropyl)-1H-pyrazol-4-yl)-1H-indazole-3-carboxamide]
IC50 [1]: 144 nM | IC50 [2]: 0.93 nM | IC50 [3]: 0.25 nM | IC50 [4]: 2.3 nM

CC(Oc1ccc2[nH]nc(C(=O)Nc3ccc(CN4CCOCC4)cc3)c2c1)c1c(Cl)cncc1Cl (stereo not shown) [Compound 30, 5-(1-(3,5-dichloropyridin-4-yl)ethoxy)-N-(4-(morpholinomethyl)phenyl)-1H-indazole-3-carboxamide]
IC50 [1]: 729 nM | IC50 [2]: 3.7 nM | IC50 [3]: 7.6 nM | IC50 [4]: 36 nM

CCN1CC(n2cc(NC(=O)c3n[nH]c4ccc(O[C@H](C)c5c(Cl)cncc5Cl)cc34)cn2)C1 [Compound 31, (R)-5-(1-(3,5-dichloropyridin-4-yl)ethoxy)-N-(1-(1-ethyl-azetidin-3-yl)-1H-pyrazol-4-yl)-1H-indazole-3-carboxamide]
IC50 [1]: 54 nM | IC50 [2]: 0.11 nM | IC50 [3]: 0.07 nM | IC50 [4]: 0.93 nM

C[C@H](O)Cn1cc(NC(=O)c2n[nH]c3ccc(O[C@H](C)c4c(Cl)cncc4Cl)cc23)cn1 [Compound 32, 5-((R)-1-(3,5-dichloropyridin-4-yl)ethoxy)-N-(1-((S)-2-hydroxypropyl)-1H-pyrazol-4-yl)-1H-indazole-3-carboxamide]
IC50 [1]: 86 nM | IC50 [2]: 0.37 nM | IC50 [3]: 0.26 nM | IC50 [4]: 0.3 nM

C[C@@H](O)Cn1cc(NC(=O)c2n[nH]c3ccc(O[C@H](C)c4c(Cl)cncc4Cl)cc23)cn1 [Compound 33, 5-((R)-1-(3,5-dichloropyridin-4-yl)ethoxy)-N-(1-((R)-2-hydroxypropyl)-1H-pyrazol-4-yl)-1H-indazole-3-carboxamide]
IC50 [1]: 99 nM | IC50 [2]: 0.33 nM | IC50 [3]: 0.39 nM | IC50 [4]: 1 nM

CCn1cc(NC(=O)c2n[nH]c3ccc(O[C@H](C)c4c(Cl)cncc4Cl)cc23)cn1 [Compound 34, (R)-5-(1-(3,5-dichloropyridin-4-yl)ethoxy)-N-(1-ethyl-1H-pyrazol-4-yl)-1H-indazole-3-carboxamide]
IC50 [1]: 61 nM | IC50 [2]: 0.06 nM | IC50 [3]: 0.75 nM | IC50 [4]: 0.24 nM

C[C@@H](Oc1ccc2[nH]nc(C(=O)Nc3cnn(C4CC(O)C4)c3)c2c1)c1c(Cl)cncc1Cl (stereo partly drawn) [Compound 35, (R)-5-(1-(3,5-dichloropyridin-4-yl)ethoxy)-N-(1-(3-hydroxycyclobutyl)-1H-pyrazol-4-yl)-1H-indazole-3-carboxamide]
IC50 [1]: 89 nM | IC50 [2]: 0.16 nM | IC50 [3]: 0.27 nM | IC50 [4]: 0.29 nM

C[C@@H](Oc1ccc2[nH]nc(C(=O)Nc3cnn(CCN(C)C)c3)c2c1)c1c(Cl)cncc1Cl [Compound 36, (R)-5-(1-(3,5-dichloropyridin-4-yl)ethoxy)-N-(1-(2-(dimethylamino)ethyl)-1H-pyrazol-4-yl)-1H-indazole-3-carboxamide]
IC50 [1]: 41 nM | IC50 [2]: 0.07 nM | IC50 [3]: 0.11 nM | IC50 [4]: 0.88 nM

C[C@@H](Oc1ccc2[nH]nc(C(=O)Nc3cnn(CCN4CCOCC4)c3)c2c1)c1c(Cl)cncc1Cl [Compound 37, (R)-5-(1-(3,5-dichloropyridin-4-yl)ethoxy)-N-(1-(2-morpholinoethyl)-1H-pyrazol-4-yl)-1H-indazole-3-carboxamide]
IC50 [1]: 79 nM | IC50 [2]: 0.44 nM | IC50 [3]: 0.16 nM | IC50 [4]: 1.6 nM

C[C@@H](Oc1ccc2[nH]nc(C(=O)Nc3cnn(CC(C)(C)O)c3)c2c1)c1c(Cl)cncc1Cl [Compound 38, (R)-5-(1-(3,5-dichloropyridin-4-yl)ethoxy)-N-(1-(2-hydroxy-2-methylpropyl)-1H-pyrazol-4-yl)-1H-indazole-3-carboxamide]
IC50 [1]: 61 nM | IC50 [2]: 0.4 nM | IC50 [3]: 0.59 nM | IC50 [4]: 3.7 nM

CCN1CC(Cn2cc(NC(=O)c3n[nH]c4ccc(O[C@H](C)c5c(Cl)cncc5Cl)cc34)cn2)C1 [Compound 39, (R)-5-(1-(3,5-dichloropyridin-4-yl)ethoxy)-N-(1-((1-ethyl-azetidin-3-yl)methyl)-1H-pyrazol-4-yl)-1H-indazole-3-carboxamide]
IC50 [1]: 30 nM | IC50 [2]: 0.05 nM | IC50 [3]: 0.05 nM | IC50 [4]: 0.35 nM

CCN1CCC(Cn2cc(NC(=O)c3n[nH]c4ccc(O[C@H](C)c5c(Cl)cncc5Cl)cc34)cn2)CC1 [Compound 40, (R)-5-(1-(3,5-dichloropyridin-4-yl)ethoxy)-N-(1-((1-ethylpiperidin-4-yl)methyl)-1H-pyrazol-4-yl)-1H-indazole-3-carboxamide]
IC50 [1]: 33 nM | IC50 [2]: 1.3 nM | IC50 [3]: 0.02 nM | IC50 [4]: 0.42 nM

CCN1CCN(c2ccc(Nc3cc(N(C)C(=O)Nc4c(Cl)c(OC)cc(OC)c4Cl)ncn3)cc2)CC1 [Infigratinib, reference compound]
IC50 [1]: 73 nM
